Laboratory results as given in article PMC12396409, “Screening and hit evaluation of a microbial metabolite library against the pathogenic Plasmodium falciparum and Toxoplasma gondii parasites” (International Journal for Parasitology: Drugs and Drug …, 2025).
Read-outs that look alike come from different tables or passages of the source.

Tests used:
[1] = system: P. falciparum 3D7 parasites; assay: P. falciparum growth inhibition assay, 1-cycle (72 h treatment), SYBR DNA staining (library screen at 2 μg/mL and dose-response); format: cell-based, Plasmodium falciparum; details: for activity at 2 µg/mL: Plasmodium falciparum, parasite screen 2 μg/mL
[2] = system: P. falciparum 3D7 parasites; assay: P. falciparum growth inhibition assay, 2-cycle (120 h treatment), delayed-death screen and dose-response; format: cell-based, Plasmodium falciparum; details: for activity at 2 µg/mL: Plasmodium falciparum, parasite screen 2 μg/mL
[3] = system: T. gondii RH strain (RH-Tub-eYFP) tachyzoites; assay: microbe, parasite or virus in culture; format: cell-based, Toxoplasma gondii
[4] = library screen at 2 μg/mL, 72 h, % growth, replicate 1
[5] = library screen at 2 μg/mL, 72 h, % growth, replicate 2
[6] = library screen at 2 μg/mL, 120 h, % growth, replicate 1
[7] = library screen at 2 μg/mL, 120 h, % growth, replicate 2
[8] = T. gondii, 72 h, 2 μg/mL; values are growth (% of control)
[9] = P. falciparum, 72 h, screen at 2 μg/mL, replicate 1
[10] = P. falciparum, 72 h, screen at 2 μg/mL, replicate 2
[11] = P. falciparum, 120 h, screen at 2 μg/mL, replicate 1
[12] = P. falciparum, 120 h, screen at 2 μg/mL, replicate 2
[13] = T. gondii, 72 h, screen at 2 μg/mL, replicate 1
[14] = T. gondii, 72 h, screen at 2 μg/mL, replicate 2
[15] = 3D7, 72 h, P. falciparum, 72 h, % growth, replicate 1, read-out: Pf_72h_%Growth_Rep1
[16] = 3D7, 72 h, P. falciparum, 72 h, % growth, replicate 2, read-out: Pf_72h_%Growth_Rep2
[17] = 3D7, 120 h, P. falciparum, 120 h, % growth, replicate 1, read-out: Pf_120h_%Growth_Rep1
[18] = 3D7, 120 h, P. falciparum, 120 h, % growth, replicate 2, read-out: Pf_120h_%Growth_Rep2
[19] = Toxoplasma gondii, 72 h, T. gondii, 72 h, parasite screen 2 μg/mL, % growth, replicate 1; read-out: Tg_72h_%Growth_Rep1
[20] = Toxoplasma gondii, 72 h, T. gondii, 72 h, parasite screen 2 μg/mL, % growth, replicate 2; read-out: Tg_72h_%Growth_Rep2
[21] = 2 μg/mL, 72 h, active = ≥80 % growth inhibition

Work on `CC(=O)NCCc1cnc[nH]1` [Acetylhistamine, N-] yielded a Pf_72h_%Growth_Rep1 [1, 4] of 82.83%, a Pf_72h_%Growth_Rep2 [1, 5] of 91.72% and a Pf_120h_%Growth_Rep1 [2, 6] of 90.99%. The Pf_120h_%Growth_Rep2 [2, 7] was 93.21%, the Tg_72h_%Growth_Rep1 [3, 4] was 95.97% and the Tg_72h_%Growth_Rep2 [3, 5] was 105.85%.

`C/C=C(\C)C(=O)OC[C@H]1O[C@H](O[C@H]2O[C@H](COC(=O)/C(C)=C/C)[C@@H](O)[C@H](O)[C@H]2O[C@@H]2O[C@H](CO)[C@@H](OC(=O)/C(C)=C/C)[C@H](OC(=O)/C(C)=C/C)[C@H]2O)[C@H](O[C@@H]2O[C@H](CO)[C@@H](OC(=O)/C(C)=C/C)[C@H](OC(=O)/C(C)=C/C)[C@H]2O)[C@@H](O)[C@@H]1O` [Actinotetraose Hexatiglate] was tested, and the “1) Growth (%) at 72 h” value ([1]; P. falciparum, 2 μg/mL, 72 h) was 46.54%, the Pf_72h_%Growth_Rep1 [1, 4] was 45.55% and the Pf_72h_%Growth_Rep2 [1, 5] was 47.53%. For the same molecule, the “2) Growth (%) at 120 h” value ([2]; P. falciparum, 2 μg/mL, 120 h) was 19.22%, the “3) Fold change (72 h/120 h)” value ([2]; P. falciparum, growth at 72 h / growth at 120 h, 2 μg/mL) was 2.4 and the Pf_120h_%Growth_Rep1 [2, 6] was 16.78%. The Pf_120h_%Growth_Rep2 [2, 7] was 21.66%, the Tg_72h_%Growth_Rep1 [3, 4] was 97.33% and the Tg_72h_%Growth_Rep2 [3, 5] was 100.02%.

`CCCCCC1=C/C(=C/c2[nH]c(-c3ccc[nH]3)cc2OC)N=C1C` [Prodigiosin] was tested, and the activity at 2 µg/mL ([1]; 3D7, P. falciparum, 72 h, % growth, replicate 1, read-out: Pf_72h_%Growth_Rep1) was 5.96%, the activity at 2 µg/mL ([1]; 3D7, P. falciparum, 72 h, % growth, replicate 2, read-out: Pf_72h_%Growth_Rep2) was 4.13% and the activity at 2 µg/mL ([2]; 3D7, P. falciparum, 120 h, % growth, replicate 1, read-out: Pf_120h_%Growth_Rep1) was -0.86%. The activity at 2 µg/mL ([2]; 3D7, P. falciparum, 120 h, % growth, replicate 2, read-out: Pf_120h_%Growth_Rep2) was 19.4%, the Mean ([3]; T. gondii, 72 h, 2 μg/mL; mean of both replicates, growth (% of control)) was 25.60 and the “Replicate 1” value [3, 8] was 39.74. The “Replicate 2” value [3, 8] was 11.46, the percent parasite growth at 2 µg/mL ([3]; Toxoplasma gondii; T. gondii, 72 h, parasite screen 2 μg/mL, % growth, replicate 1; read-out: Tg_72h_%Growth_Rep1) was 39.7% and the percent parasite growth at 2 µg/mL ([3]; Toxoplasma gondii; T. gondii, 72 h, parasite screen 2 μg/mL, % growth, replicate 2; read-out: Tg_72h_%Growth_Rep2) was 11.5%.

`CC(C)[C@@H]1NC(=O)[C@H](Cc2ccc(O)cc2)NC1=O` [Cyclo(L-Tyr-L-Val)] showed a Pf_72h_%Growth_Rep1 [1, 9] of 84.64%, a Pf_72h_%Growth_Rep2 [1, 10] of 82.94% and a Pf_120h_%Growth_Rep1 [2, 11] of 98.73%. The Pf_120h_%Growth_Rep2 [2, 12] was 89.51%, the Tg_72h_%Growth_Rep1 [3, 13] was 164.57% and the Tg_72h_%Growth_Rep2 [3, 14] was 103.47%.

In the case of `CCC(C)(C)C(=O)O[C@H]1C[C@@H](C)C=C2C=C[C@H](C)[C@H](CC[C@@H]3C[C@@H](O)CC(=O)O3)[C@H]21` [Simvastatin], the activity at 2 µg/mL [1, 15] is reported as 83.1%, the activity at 2 µg/mL [1, 16] is reported as 118% and the activity at 2 µg/mL [2, 17] is reported as 83.8%. The activity at 2 µg/mL [2, 18] was 70.2%, the percent parasite growth at 2 µg/mL [3, 19] was 93.5% and the percent parasite growth at 2 µg/mL [3, 20] was 71.4%.

`CN[C@@H]1C[C@H]2O[C@@](C)([C@@H]1OC)n1c3ccccc3c3c4c(c5c6ccccc6n2c5c31)C(=O)NC4` [staurosporine, reference compound] was tested, and the “activity in the screen against P. falciparum” value [1, 21] was “active in our screens”, the activity at 2 µg/mL [1, 15] was 9.8% and the activity at 2 µg/mL [1, 16] was -0.94%. The activity at 2 µg/mL [2, 17] was 10.8%, the activity at 2 µg/mL [2, 18] was 1.05% and the “activity in the screen against T. gondii” value [3, 21] was “active in our screens”. For the same molecule, the percent parasite growth at 2 µg/mL [3, 19] was 1.08% and the percent parasite growth at 2 µg/mL [3, 20] was -0.18%.

With `C/C=C(\NC(=O)c1csc(-c2csc(-c3ccc4c(n3)-c3csc(n3)[C@H]([C@@H](C)O)NC(=O)c3csc(n3)[C@H](C(C)(C)O)NC(=O)c3csc(n3)/C(=C/C)NC(=O)[C@H]([C@@H](C)O)NC(=O)c3csc-4n3)n2)n1)C(=O)NC[C@@H](C)O` [Thiocillin I] the IC50 ([1]; 3D7, 72 h treatment, mean ± S.D., n ≥ 3, read-out: IC50 (μM), P. falciparum) was 0.08 ± 0.008 µM, the IC50 ([1]; 72 h treatment, read-out: IC50, P. falciparum) was less than 0.2 µM and the Pf_72h_%Growth_Rep1 [1, 9] was 5.41%. It also gave a Pf_72h_%Growth_Rep2 [1, 10] of -2.25%, a Pf_120h_%Growth_Rep1 [2, 11] of 9.85% and a Pf_120h_%Growth_Rep2 [2, 12] of 7.39%. For the same molecule, the Tg_72h_%Growth_Rep1 [3, 13] was 86.81% and the Tg_72h_%Growth_Rep2 [3, 14] was 86.09%.
